The results in this text go back to patent publication US11866450B2, “Modulators of Cystic Fibrosis Transmembrane Conductance regulator, pharmaceutical compositions, methods of treatment, and process for making the modulators” (priority 2018, dated 2024).

In data set [1] the target is CFTR-mediated chloride transport (Homo sapiens, UniProt P13569). The format is cell-based. The note with it: enteroid cells incubated with test compound 18-24 hours, acute 10 μM forskolin and 300 nM Compound III; for Max. Activity: % of chloride transport with 3 μM Compound A, 3 μM Compound II and 300 nM acute Compound III triple combination control. In a few lines:
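Human intestinal enteroid cells incubated with compound 18–24 h at 37° C., then membrane potential dye (FLIPR) read 15 min after chloride-free stimulation with 10 μM forskolin, 100 μM IBMX and 300 nM Compound III. AUC expressed as % of triple-combination control (3 μM Compound A, 3 μM Compound II, 300 nM Compound III).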

For data set [2] the following is noted: snar bond.

Where two headings read alike, the source gives them in different places.

CFTR-mediated chloride transport, sequence (P13569 whole entry, looked up): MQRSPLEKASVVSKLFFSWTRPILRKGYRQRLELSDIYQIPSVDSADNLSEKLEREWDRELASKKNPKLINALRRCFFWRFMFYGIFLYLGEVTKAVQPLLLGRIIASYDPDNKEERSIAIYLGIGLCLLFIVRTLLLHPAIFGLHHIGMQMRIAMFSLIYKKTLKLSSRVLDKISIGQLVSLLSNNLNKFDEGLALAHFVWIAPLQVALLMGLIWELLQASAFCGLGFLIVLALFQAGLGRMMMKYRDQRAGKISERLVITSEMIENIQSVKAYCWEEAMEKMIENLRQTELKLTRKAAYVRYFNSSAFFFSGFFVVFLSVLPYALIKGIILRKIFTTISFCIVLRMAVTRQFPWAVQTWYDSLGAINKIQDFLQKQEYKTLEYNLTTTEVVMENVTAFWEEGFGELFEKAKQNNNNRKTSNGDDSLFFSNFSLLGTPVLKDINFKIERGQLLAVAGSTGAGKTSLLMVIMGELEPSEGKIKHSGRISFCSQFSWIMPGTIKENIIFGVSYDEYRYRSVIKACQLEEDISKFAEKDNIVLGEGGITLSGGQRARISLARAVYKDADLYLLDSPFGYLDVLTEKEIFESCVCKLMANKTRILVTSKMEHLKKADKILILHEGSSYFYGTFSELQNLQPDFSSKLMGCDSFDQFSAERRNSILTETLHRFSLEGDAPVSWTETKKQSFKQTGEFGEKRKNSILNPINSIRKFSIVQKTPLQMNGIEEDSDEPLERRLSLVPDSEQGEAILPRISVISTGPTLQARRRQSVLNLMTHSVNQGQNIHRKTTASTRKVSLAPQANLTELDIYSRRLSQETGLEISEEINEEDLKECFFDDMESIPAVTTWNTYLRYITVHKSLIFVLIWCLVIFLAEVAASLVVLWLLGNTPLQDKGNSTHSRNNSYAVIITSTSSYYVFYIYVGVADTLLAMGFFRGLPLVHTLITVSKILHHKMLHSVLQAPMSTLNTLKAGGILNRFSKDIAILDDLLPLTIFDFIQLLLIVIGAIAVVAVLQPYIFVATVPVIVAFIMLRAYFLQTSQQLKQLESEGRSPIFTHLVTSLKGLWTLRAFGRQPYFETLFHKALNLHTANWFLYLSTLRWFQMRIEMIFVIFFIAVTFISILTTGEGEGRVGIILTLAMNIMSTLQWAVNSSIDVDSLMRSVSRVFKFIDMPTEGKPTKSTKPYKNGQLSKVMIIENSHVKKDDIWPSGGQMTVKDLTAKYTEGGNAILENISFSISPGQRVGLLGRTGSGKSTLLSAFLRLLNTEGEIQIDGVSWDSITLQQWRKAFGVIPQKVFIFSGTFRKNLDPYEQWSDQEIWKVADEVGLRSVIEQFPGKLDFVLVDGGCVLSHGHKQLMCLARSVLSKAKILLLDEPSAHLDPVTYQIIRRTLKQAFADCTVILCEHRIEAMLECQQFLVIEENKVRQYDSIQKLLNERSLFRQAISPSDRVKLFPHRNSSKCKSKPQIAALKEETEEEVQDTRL

On to `CC1(C)CC2CCCCOc3ccc(cn3)S(=O)(=O)NC(=O)c3ccc(-n4ccc(OCCC5(C(F)(F)F)CC5)n4)nc3N1C2` (stereo not drawn) [Compound 94, 12,12-dimethyl-8-(3-{2-[1-(trifluoromethyl)cyclopropyl]ethoxy}-1H-pyrazol-1-yl)-19-oxa-2λ^6-thia-3,9,11,21-tetraazatetracyclo[18.2.2.111,14.05,10]pentacosa-1(23),5,7,9,20(24),21-hexaene-2,2,4-trione], for which, in data set [1], the half-maximal effective concentration (EC50) is above 3000 nM and the “Max. Activity” value is “+ (+ is <30%)”. The same compound had a ring closure, isolated yield in data set [2] (from CC(C)(C)OC(=O)N1CC(CCCCOc2ccc(S(=O)(=O)NC(=O)c3ccc(-n4ccc(OCCC5(C(F)(F)F)CC5)n4)nc3Cl)cn2)CC1(C)C, 17-membered ring, HCl (Boc off), K2CO3/CsF/3A MS, DMSO, 59.4 mM, 150.0 °C, 2 steps) of 26%.
`CC1(C)C[C@@H]2CCCNc3cccc(n3)S(=O)(=O)NC(=O)c3ccc(-n4ccc(OCCCC5(C(F)(F)F)CC5)n4)nc3N1C2` [Compound 161, (14S)-12,12-dimethyl-8-(3-{3-[1-(trifluoromethyl)cyclopropyl]propoxy}-1H-pyrazol-1-yl)-2λ^6-thia-3,9,11,18,23-pentaazatetracyclo[17.3.1.111,14.05,10]tetracosa-1(22),5,7,9,19(23),20-hexaene-2,2,4-trione]: in data set [1], the 50% effective concentration (EC50) was below 1000 nM and the “Max. Activity” value is given as “+++ (+++ is >60%)”. Further, in data set [2] (from 2-chloro-N-[[6-[3-[(3S)-5,5-dimethylpyrrolidin-3-yl]propylamino]-2-pyridyl]sulfonyl]-6-[3-[3-[1-(trifluoromethyl)cyclopropyl]propoxy]pyrazol-1-yl]pyridine-3-carboxamide (dihydrochloride salt), 15-membered ring, K2CO3/CsF, NMP, 83.9 mM, 150.0 °C), the ring closure, isolated yield turned out to be 55%.
`CC1(C)CC2CCCCCc3ccc(nc3)S(=O)(=O)NC(=O)c3ccc(-n4ccc(OCCC5(C(F)(F)F)CC5)n4)nc3N1C2` (stereo not drawn) [Compound 143, 12,12-dimethyl-8-(3-{2-[1-(trifluoromethyl)cyclopropyl]ethoxy}-1H-pyrazol-1-yl)-2λ^6-thia-3,9,11,22-tetraazatetracyclo[18.2.2.111,14.05,10]pentacosa-1(23),5,7,9,20(24),21-hexaene-2,2,4-trione]: in data set [1], the EC50 lay within 1000 to 3000 nM and the “Max. Activity” value was “+ (+ is <30%)”. The compound also showed a ring closure, isolated yield in data set [2] (from CC1(C)CC(CCCCCc2ccc(S(=O)(=O)NC(=O)c3ccc(-n4ccc(OCCC5(C(F)(F)F)CC5)n4)nc3Cl)nc2)CN1, 17-membered ring, K2CO3/CsF, DMSO, 45.1 mM, 165.0 °C, 17.0 h) of 11%.
`CC1(C)CC2CCCn3ccc(n3)S(=O)(=O)NC(=O)c3ccc(-n4ccc(OCCC5C6(CC6)C56CC6)n4)nc3N1C2` (stereo not drawn) [Compound 176, 4-[3-(2-{dispiro[2.0.2.1]heptan-7-yl}ethoxy)-1H-pyrazol-1-yl]-20,20-dimethyl-10λ^6-thia-1,3,9,14,22-pentaazatetracyclo[16.2.1.111,14.02,7]docosa-2,4,6,11(22),12-pentaene-8,10,10-trione]: in data set [1], the EC50 was below 1000 nM and the “Max. Activity” value was “+++ (+++ is >60%)”. In data set [2] (from CC1(C)CC(CCCn2ccc(S(=O)(=O)NC(=O)c3ccc(-n4ccc(OCCC5C6(CC6)C56CC6)n4)nc3Cl)n2)CN1, 14-membered ring, K2CO3/CsF/3A MS, DMSO, 53.1 mM, 155.0 °C), the ring closure, isolated yield worked out at 40%.
With `[2H]C([2H])([2H])C1(C([2H])([2H])[2H])C[C@@H]2CCCNc3cccc(n3)S(=O)(=O)NC(=O)c3ccc(-n4ccc(OCCC5C6(CC6)C56CC6)n4)nc3N1C2` [Compound 274, (14S)-8-[3-(2-{Dispiro[2.0.2.1]heptan-7-yl}ethoxy)-1H-pyrazol-1-yl]-12,12-di(trideuterio)methyl-2λ^6-thia-3,9,11,18,23-pentaazatetracyclo[17.3.1.111,14.05,10]tetracosa-1(23),5,7,9,19,21-hexaene-2,2,4-trione], in data set [1], the concentration for a half-maximal effect (EC50) was below 1000 nM and the “Max. Activity” value is recorded as “+++ (+++ is >60%)”. In addition, in data set [2] (from [2H]C([2H])([2H])C1(C([2H])([2H])[2H])C[C@H](CCCNc2cccc(S(=O)(=O)NC(=O)c3ccc(-n4ccc(OCCC5C6(CC6)C56CC6)n4)nc3Cl)n2)CN1, 15-membered ring, K2CO3, NMP, 53.5 mM, 150.0 °C), the ring closure, isolated yield is 47%.
Take `CC1(C)CC2CCCn3cc(cn3)S(=O)(=O)NC(=O)c3ccc(-n4ccc(OCCC5(C(F)(F)F)CC5)n4)nc3N1C2` (stereo not drawn) [Compound 110, 20,20-Dimethyl-4-(3-{2-[1-(trifluoromethyl)cyclopropyl]ethoxy}-1H-pyrazol-1-yl)-10λ^6-thia-1,3,9,13,14-pentaazatetracyclo[16.2.1.111,14.02,7]docosa-2,4,6,11(22),12-pentaene-8,10,10-trione]: in data set [1], the EC50 is below 1000 nM and the “Max. Activity” value is recorded as “++ (++ is 30-60%)”. The same compound gave a ring closure, isolated yield in data set [2] (from CC(C)(C)OC(=O)N1CC(CCCn2cc(S(=O)(=O)NC(=O)c3ccc(-n4ccc(OCCC5(C(F)(F)F)CC5)n4)nc3Cl)cn2)CC1(C)C, 14-membered ring, HCl (Boc off), K2CO3/CsF/3A MS, DMSO, 44.8 mM, 155.0 °C, 2 steps) of 36%.
Regarding `CC1(C)CC2CCCNc3cccc(n3)S(=O)(=O)NC(=O)c3ccc(-n4ccc(OCCC5(C(F)(F)F)CC5)n4)nc3N1C2` (racemic) [Compound 12, 12,12-dimethyl-8-(3-{2-[1-(trifluoromethyl)cyclopropyl]ethoxy}-1H-pyrazol-1-yl)-2λ^6-thia-3,9,11,18,23-pentaazatetracyclo[17.3.1.111,14.05,10]tetracosa-1(23),5(10),6,8,19,21-hexaene-2,2,4-trione], in data set [1], the EC50 is below 1000 nM and the “Max. Activity” value is on record as “+++ (+++ is >60%)”. In data set [2] (from 2-chloro-N-[[6-[3-(5,5-dimethylpyrrolidin-3-yl)propylamino]-2-pyridyl]sulfonyl]-6-[3-[2-[1-(trifluoromethyl)cyclopropyl]ethoxy]pyrazol-1-yl]pyridine-3-carboxamide (dihydrochloride salt), 15-membered ring, K2CO3/CsF, NMP, 144.7 mM, 150.0 °C), the ring closure, isolated yield was 67%.
In the case of `Cc1cc2nn1CCCC1CN(c3nc(-n4ccc(OCCC5(C(F)(F)F)CC5)n4)ccc3C(=O)NS2(=O)=O)C(C)(C)C1` (stereo not drawn) [Compound 144, 13,20,20-Trimethyl-4-(3-{2-[1-(trifluoromethyl)cyclopropyl]ethoxy}-1H-pyrazol-1-yl)-10λ^6-thia-1,3,9,14,22-pentaazatetracyclo[16.2.1.111,14.02,7]docosa-2,4,6,11(22),12-pentaene-8,10,10-trione], in data set [1], the EC50 was below 1000 nM and the “Max. Activity” value was “++ (++ is 30-60%)”. The ring closure, isolated yield in data set [2] (from Cc1cc(S(=O)(=O)NC(=O)c2ccc(-n3ccc(OCCC4(C(F)(F)F)CC4)n3)nc2Cl)nn1CCCC1CN(C(=O)OC(C)(C)C)C(C)(C)C1, 14-membered ring, K2CO3/CsF/3A MS, DMSO, 44.1 mM, 155.0 °C, 2 steps) amounted to 38%.
Take `CC1(C)CC2CCCCc3cccc(c3)S(=O)(=O)NC(=O)c3ccc(-n4ccc(OCCC5(C(F)(F)F)CC5)n4)nc3N1C2` (stereo not drawn) [Compound 53, 12,12-dimethyl-8-(3-{2-[1-(trifluoromethyl)cyclopropyl]ethoxy}-1H-pyrazol-1-yl)-2λ^6-thia-3,9,11-triazatetracyclo[17.3.1.111,14.05,10]tetracosa-1(22),5,7,9,19(23),20-hexaene-2,2,4-trione]: in data set [1], the EC50 is below 1000 nM and the “Max. Activity” value is recorded as “+++ (+++ is >60%)”. In addition, the ring closure, isolated yield in data set [2] (from CC1(C)CC(CCCCc2cccc(S(=O)(=O)NC(=O)c3ccc(-n4ccc(OCCC5(C(F)(F)F)CC5)n4)nc3Cl)c2)CN1, 15-membered ring, K2CO3/CsF/3A MS, DMSO, 32.0 mM, 165.0 °C, 6.0 h) is 51%.
As for `[2H]C([2H])(CCOc1ccn(-c2ccc3c(n2)N2C[C@@H](CCCNc4cccc(n4)S(=O)(=O)NC3=O)CC2(C)C)n1)C1(C(F)(F)F)CC1` [Compound 269, (14S)-12,12-Dimethyl-8-(3-{3-[1-(trifluoromethyl)cyclopropyl]-3,3-dideuterio-propoxy}-1H-pyrazol-1-yl)-2λ^6-thia-3,9,11,18,23-pentaazatetracyclo[17.3.1.111,14.05,10]tetracosa-1(22),5(10),6,8,19(23),20-hexaene-2,2,4-trione], in data set [1], the EC50 is below 1000 nM and the “Max. Activity” value was “+++ (+++ is >60%)”. Further, the ring closure, isolated yield in data set [2] (from [2H]C([2H])(CCOc1ccn(-c2ccc(C(=O)NS(=O)(=O)c3cccc(NCCC[C@@H]4CN(C(=O)OC(C)(C)C)C(C)(C)C4)n3)c(Cl)n2)n1)C1(C(F)(F)F)CC1, 15-membered ring, TFA/DCM, then K2CO3/3A MS, DMSO, 30.5 mM, 150.0 °C, 2 steps) amounted to 24%.
In the case of `CC1(C)CC2CCCOc3ccc(cc3)S(=O)(=O)NC(=O)c3ccc(-n4ccc(OCCC5(C(F)(F)F)CC5)n4)nc3N1C2` (racemic) [Compound 88, 12,12-Dimethyl-8-(3-{2-[1-(trifluoromethyl)cyclopropyl]ethoxy}-1H-pyrazol-1-yl)-18-oxa-2λ^6-thia-3,9,11-triazatetracyclo[17.2.2.111,14.05,10]tetracosa-1(21),5,7,9,19,22-hexaene-2,2,4-trione], in data set [1], the EC50 was below 1000 nM and the “Max. Activity” value is “++ (++ is 30-60%)”. The same compound showed a ring closure, isolated yield in data set [2] (from CC1(C)CC(CCCOc2ccc(S(=O)(=O)NC(=O)c3ccc(-n4ccc(OCCC5(C(F)(F)F)CC5)n4)nc3Cl)cc2)CN1, 16-membered ring, K2CO3/CsF/3A MS, DMSO, 37.3 mM, 35.0 h) of 4%.
Consider `CC1(C)C[C@@H]2CCCNc3cccc(n3)S(=O)(=O)NC(=O)c3ccc(-n4ccc(OCCC5C6(CC6)C56CC6)n4)nc3N1C2` [Compound 195, (14S)-8-[3-(2-{Dispiro[2.0.2.1]heptan-7-yl}ethoxy)-1H-pyrazol-1-yl]-12,12-dimethyl-2λ^6-thia-3,9,11,18,23-pentaazatetracyclo[17.3.1.111,14.05,10]tetracosa-1(22),5,7,9,19(23),20-hexaene-2,2,4-trione], for which, in data set [1], the concentration for a half-maximal effect (EC50) is below 1000 nM and the “Max. Activity” value is recorded as “+++ (+++ is >60%)”. In data set [2] (from CC1(C)C[C@H](CCCNc2cccc(S(=O)(=O)NC(=O)c3ccc(-n4ccc(OCCC5C6(CC6)C56CC6)n4)nc3Cl)n2)CN1, 15-membered ring, K2CO3, NMP, 55.8 mM, 150.0 °C, 22.0 h), the ring closure, isolated yield came to 68%.
